Converted amounts (≈) assume the structure as drawn. “And” between values parts separate entries of the source, which are not always exact repeats. Equal entries are not always repeated. “Also recorded” adds a separate entry of the source. Where two headings read alike, the source gives them in different places. Square brackets hold non-standard residues; d marks the D form. Ends that are not written are not given here. Peptide text beside a SMILES is read from it. Bip = N[C@@H](Cc1ccc(-c2ccccc2)cc1)C(=O)O Some results are limits rather than exact numbers.

A word on the EC50: it is the concentration needed to bring the measured effect to its halfway point. The IC50 is the concentration that inhibits the measured activity by half. A high value points to weaker potency.

In experiment [1] the test system is Escherichia coli ATCC 25922. It is filed as cell-based. In outline:
(§1)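 Inoculum of 2×10^6 CFU/ml, mid-logarithmic growth phase, in 1% Bacto Peptone water; standard microdilution, performed in triplicate.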

For experiment [2], the system named is Staphylococcus aureus ATCC 25923. It is filed as cell-based. In outline:
as §1

The subject of experiment [3] is MRSA (methicillin resistant S. aureus). It is filed as cell-based. As for the experimental part:
The bacterial strains used were: Escherichia coli ATCC 25922 and Staphylococcus aureus ATCC 25923. All strains were stored at −70° C. The bacteria were grown in 2% Bacto Peptone water (Difco 1807-17-4). All tests were performed with bacteria in mid-logarithmic growth phase. Determination of the minimum inhibitory concentration (MIC) of the peptides for bacterial strains were performed in 1% Bacto Peptone water. A standard microdilution technique with an inoculum of 2×10^6 CFU/ml was used. All assays were performed in triplets. Since the peptides are positively charged and therefore could adhere to the plastic wells, we controlled the actual concentration of the peptides in the solution by HPLC. There was no difference between the concentration of the peptides before or after adding the solution to the plastic wells.
Table 13 below gives the antibacterial activity and toxicity data for some preferred peptides of the invention. MRSA is methicillin resistant S. aureus and MRSE is methicillin resistant S. epidermidis.

The next experiment concerns human red blood cells. Nature of the experiment: Hemolytic assay. It is filed as cell-based. The following applies: red cells of human.
Experiment [4] relates to Meth A cells (murine sarcoma cell line). Nature of the experiment: Cytotoxicity on Meth A cells, MTT method. The following applies: 4 h. As to the method:
Peptide solutions (0.1 ml) were added and the plates incubated at 37° C. for 30 minutes, 4 hours or 24 hours. The cytotoxicity was measured using the MTT method (Mosmann et al., J. Immunol. (1986) 136, 2348-2357).
Cells in the growth phase were harvested and washed in fresh medium and injected subcutaneously into the abdominal region of the mice.
The cytotoxic effect of the peptides on different murine and human tumor cells were measured using the MTT method (Mosmann et al., J. Immunol. (1986) 136, 2348-2357). MTT is a soluble tetrazolium salt yielding a yellow solution when prepared in media or salt solutions lacking phenol red. Dissolved MTT is converted to an insoluble purple formazan by cleavage of the tetrazolium ring by dehydrogenase enzymes. This water insoluble formazan can be solubilized using isopropanol or other solvents and the dissolved material is measured spectrophotometrically. The absorbance was measured as a function of concentration of converted dye.
Cells were maintained in […] medium containing 10% FBS, 1% L-glutamine and 0.1% penicillin and streptomycin. Cells to be used in the assay were grown to confluency, trypsinated and split to single cell suspension, counted and centrifuged at 1500 rpm for 10 min. […][…] of cell suspension was transferred to each well on a 96-well microtiter plate. The cells were stimulated by adding […] of various concentrations of peptides diluted with assay medium to each well. The final concentrations of peptide were for example: 5, 10, 20, 40, 60, 80, 100, and 200 mg/ml. […] As a negative control only medium was added to the cells, and as a positive control (100% killing) 1% triton X-100 was added. Following an incubation period of 4 h., 20 ml MTT dissolved in PBS at a concentration of 5 mg/ml was added to each well, and the plate was incubated further for 2 h. 130 ml of the supernatant were then removed and […] acid alcohol (0.04-0.1 N HCl in isopropanol) added to each well to dissolve the dark blue crystals. The plate was placed on a shaker for 1 h and read spectrophotometrically at 590 nm in a microtiterplate reader using the Softmaxâ program.

For the next experiment, the system named is normal fibroblasts. It is filed as cell-based.

In the case of `C[C@@H](NC(=O)[C@H](Cc1c[nH]c2ccccc12)NC(=O)[C@H](CCCNC(=N)N)NC(=O)[C@H](Cc1c[nH]c2ccccc12)NC(=O)[C@@H](C)NC(=O)[C@@H](CCCNC(=N)N)NC(=O)[C@H](N)Cc1ccc(O)cc1)C(=O)N[C@@H](Cc1c[nH]c2ccccc12)C(=O)N[C@@H](CCCNC(=N)N)C(=O)N[C@@H](Cc1c[nH]c2ccccc12)C(=O)N[C@@H](CCCNC(=N)N)C(N)=O` (H-[dY][dR][dA]WRW[dA]WRWR-NH2), in experiment [1] (Table 14, peptides with a proportion of D amino acids), the “MIC E. coli” value came to 7.5 µg/mL (≈ 4.43 µM). Moreover, the “MIC S. aureus” value in experiment [2] (Table 14) is 5 µg/mL (≈ 2.96 µM). For the same molecule, the “MIC MRSA” value in experiment [3] (Table 14) worked out at 2.5 µg/mL.
`CSCC[C@H](NC(=O)[C@H](CCCNC(=N)N)NC(=O)[C@H](Cc1c[nH]c2ccccc12)NC(=O)[C@H](CCC(N)=O)NC(=O)[C@H](Cc1c[nH]c2ccccc12)NC(=O)[C@H](CCCNC(=N)N)NC(=O)[C@H](CCCNC(=N)N)NC(=O)[C@H](Cc1ccc(-c2ccccc2)cc1)NC(=O)[C@H](CCCCN)NC(=O)[C@@H](N)Cc1ccccc1)C(=O)N[C@@H](CCCCN)C(=O)N[C@@H](CCCCN)C(=O)N[C@@H](CC(C)C)C(=O)NCC(=O)N[C@@H](C)C(=O)O` [LFB Bip3] (H-FK[Bip]RRWQWRMKKLGA-OH; N-terminus assumed): the “MIC E. coli” value in experiment [1] (Table 13, listed as LPB Bip 3) came out at 12.5 µg/mL (≈ 5.91 µM). In addition, the “MIC MRSA” value was 2.5 µg/mL in experiment [3] (Table 13, listed as LPB Bip 3) and 1.2 µM in experiment [3] (methicillin resistant).
In the case of `CSCC[C@H](NC(=O)[C@H](CCCNC(=N)N)NC(=O)[C@H](Cc1ccc(-c2ccccc2)cc1)NC(=O)[C@H](CCC(N)=O)NC(=O)[C@H](Cc1ccc(-c2ccccc2)cc1)NC(=O)[C@H](CCCNC(=N)N)NC(=O)[C@H](CCCNC(=N)N)NC(=O)[C@H](CSCNC(C)=O)NC(=O)[C@H](CCCCN)NC(=O)[C@@H](N)Cc1ccccc1)C(=O)N[C@@H](CCCCN)C(=O)N[C@@H](CCCCN)C(=O)N[C@@H](CC(C)C)C(=O)NCC(=O)N[C@@H](C)C(=O)O` [LFB Bip6, 8], the “MIC E. coli” value in experiment [1] (ATCC 25922) was 10 µg/mL (≈ 4.67 µM); in experiment [1] (Table 13, 8) it was “≧12.5 μg/ml; also recorded: ≧5.8 μM”. Moreover, in experiment [2] (Table 13, 8), the “MIC S. aureus” value is 3.0 µg/mL (≈ 1.4 µM). The “MIC MRSA” value in experiment [3] (Table 13, 8) is 2.5 µg/mL; in experiment [3] (methicillin resistant), 1.2 µM.
For `CSCC[C@H](NC(=O)[C@H](CCCNC(=N)N)NC(=O)[C@H](Cc1ccc(-c2ccccc2)cc1)NC(=O)[C@H](CCC(N)=O)NC(=O)[C@H](Cc1c(S(=O)(=O)c2c(C)c(C)c3c(c2C)CCC(C)(C)O3)[nH]c2ccccc12)NC(=O)[C@H](CCCNC(=N)N)NC(=O)[C@H](CCCNC(=N)N)NC(=O)[C@H](CSCNC(C)=O)NC(=O)[C@H](CCCCN)NC(=O)[C@@H](N)Cc1ccccc1)C(=O)N[C@@H](CCCCN)C(=O)N[C@@H](CCCCN)C(=O)N[C@@H](CC(C)C)C(=O)NCC(=O)N[C@@H](C)C(=O)O` [LFB Bip8 PMC], the “MIC E. coli” value is 25 µg/mL (≈ 10.6 µM) in experiment [1] (Table 8); 15.0 μg/ml and 6.3 μM in experiment [1] (Table 13). Besides, the “MIC S. aureus” value in experiment [2] (Table 8) is 5 µg/mL (≈ 2.11 µM); in experiment [2] (Table 13), 2.5 μg/ml and 1.1 μM. Moreover, in experiment [3] (Table 13), the “MIC MRSA” value is 2.5 μg/ml and 1.1 μM.
As to `N=C(N)NCCC[C@@H](N)C(=O)N[C@@H](Cc1c[nH]c2ccccc12)C(=O)N[C@H](Cc1c[nH]c2ccccc12)C(=O)N[C@@H](CCCNC(=N)N)C(=O)N[C@H](Cc1ccc(O)cc1)C(=O)N[C@@H](Cc1c[nH]c2ccccc12)C(=O)N[C@H](CCCNC(=N)N)C(N)=O` [arg-TRP-trp-ARG-tyr-TRP-arg-CONH2] (H-[dR]W[dW]R[dY]W[dR]-NH2; N-terminus assumed), the “MIC E. coli” value in experiment [1] (ATCC 25922) amounted to 7.5 µg/mL (≈ 6.21 µM). Also, in experiment [2] (ATCC 25923), the “MIC S. aureus” value is 5 µg/mL (≈ 4.14 µM). Further, in experiment [3] (methicillin resistant), the “MIC MRSA” value was 2.5 µg/mL.
For `N=C(N)NCCC[C@@H](N)C(=O)N[C@H](Cc1c[nH]c2ccccc12)C(=O)N[C@@H](Cc1c[nH]c2ccccc12)C(=O)N[C@@H](CCCNC(=N)N)C(=O)N[C@@H](Cc1ccc(O)cc1)C(=O)N[C@H](Cc1c[nH]c2ccccc12)C(=O)N[C@H](CCCNC(=N)N)C(N)=O` [arg-trp-TRP-ARG-TYR-trp-arg-CONH2] (H-[dR][dW]WRY[dW][dR]-NH2), in that order: 7.5 µg/mL (≈ 6.21 µM), 5 µg/mL (≈ 4.14 µM) and 2.5 µg/mL.
For `C[C@@H](NC(=O)[C@H](CCCNC(=N)N)NC(=O)[C@H](N)Cc1ccc(O)cc1)C(=O)N[C@@H](Cc1c[nH]c2ccccc12)C(=O)N[C@H](CCCNC(=N)N)C(=O)N[C@@H](Cc1c[nH]c2ccccc12)C(=O)N[C@H](C)C(=O)N[C@@H](Cc1c[nH]c2ccccc12)C(=O)N[C@H](CCCNC(=N)N)C(=O)N[C@@H](Cc1c[nH]c2ccccc12)C(=O)N[C@H](CCCNC(=N)N)C(N)=O` [tyr-ARG-ala-TRP-arg-TRP-ala-TRP-arg-TRP-arg-CONH2] (H-[dY]R[dA]W[dR]W[dA]W[dR]W[dR]-NH2; N-terminus assumed), in that order: 7.5 µg/mL (≈ 4.43 µM), 7.5 µg/mL (≈ 4.43 µM) and 2.5 µg/mL.
As for “PAWRKAARWAWRMLKKAA-OH [LFB 14-31A2,6, 10, 17F7K16L14R4 F7 → A7]”, in experiment [1] (ATCC 25922), the “Mic E-coli” value is 15 µM. Also, the “Mic S. Aureus” value in experiment [2] (ATCC 25923) is 10 µM. In the experiment with human red blood cells, the EC50 is over 455 µM. In addition, the IC50 in experiment [4] turned out to be 34.6 µM; in the experiment on normal fibroblasts, 289 µM.
On to “PAWRKAFRAAARMLKKAA-OH [LFB 14-31A2,6,9, 10, 11, 17F7K16L14R4]”, for which the “Mic E-coli” value in experiment [1] (ATCC 25922) turned out to be 30 µM. In addition, the “Mic S. Aureus” value in experiment [2] (ATCC 25923) worked out at 30 µM. The molecule further displayed an EC50 in the experiment with human red blood cells of over 489 µM. The half-maximal inhibitory concentration (IC50) in experiment [4] was 110 µM; with normal fibroblasts, over 489 µM.
Regarding “PAWRKAFRAAWRMLKKAA-OH [LFB 14-31A2,6,9, 10, 17F7K16L14R4]”, in experiment [1] (ATCC 25922), the “Mic E-coli” value came to 10 µM. The “Mic S. Aureus” value in experiment [2] (ATCC 25923) was 5 µM. The molecule also registered an EC50 with human red blood cells of 382 µM. The IC50 in experiment [4] was found to be 16.2 µM; in the experiment with normal fibroblasts it was 46.3 µM.
With “PAWRKAFRKAWRMLKKAA-OH [LFB 14-31A2,6, 10, 17F7K9, 16L14R4]”, the “Mic E-coli” value in experiment [1] (ATCC 25922) worked out at 30 µM. Moreover, the “Mic S. Aureus” value in experiment [2] (ATCC 25923) is 10 µM. The EC50 in the experiment on human red blood cells was over 451 µM. The IC50 in experiment [4] came to 13.5 µM; in the experiment on normal fibroblasts it was 58.7 µM.
Regarding “PAWRKAFRWAARMLKKAA-OH [LFB 14-31A2,6, 10, 11, 17F7K16L14R4]”, the “Mic E-coli” value in experiment [1] (ATCC 25922) turned out to be 10 µM. In experiment [2] (ATCC 25923), the “Mic S. Aureus” value is over 2.5 µM. Also, the EC50 with human red blood cells turned out to be 278 µM. Moreover, the IC50 is 11.1 µM in experiment [4] and 46.3 µM with normal fibroblasts.
For “PAWRKAFRWAKRMLKKAA-OH [LFB 14-31A2,6, 10, 17F7K11, 16L14R4]”, in that order: 5 µM, under 2.5 µM, over 451 µM, 7.9 µM and 30.7 µM.
Turning to “PAWRKAFRWAWRMLKKAA-OH [LFB 14-31A2,6, 10, 17F7K16L14R4]”, the “Mic E-coli” value in experiment [1] (Table 17) is on record as 2/4. Besides, the “Mic S. Aureus” value in experiment [2] (ATCC 25923) was 2 µM. In the experiment with human red blood cells, the EC50 came to 110 µM. Besides, the results for the IC50 (in experiment [4]; with normal fibroblasts) were 6.6 µM and 17 µM, respectively.

The values are drawn from patent publication US20030022821A1, “Bioactive peptides” (priority 1998, published 2003).
